Each structure is given as a SMILES string. Structures can show the parent of a compound that is named as a salt.

The test system of the test is FL-SMN mRNA (SMN transcript containing exons 7 and 8). Briefly: Live-cell assay to measure changes in FL-SMN mRNA levels (qPCR) after exposure to the compounds. The class given is cell-based, human. The note with it: fibroblasts derived from patients SMA (GM03813); 24 hours incubation. As to the method:
In this example, each test compound was administered to cultured cells, and changes in the expression levels of mRNA transcripts of SMN, i.e., FL-SMN containing exons 7 and 8 and Delta7 with exon 7 skipped, were examined using PCR.
Fibroblasts derived from patients SMA (GM03813) (Coriell Cell Repositories) were cultured with passages using DMEM (High Glucose) (Life Technologies) supplemented with 10% FBS (Life Technologies). Cells were seeded in tissue-culture-treated 96-well plates (Corning) at 1.5 or 0.5×10^4 cells/well in 100 μL of medium. The cells were incubated in 5% CO2 for 6 hours, and the medium was replaced with 100 μL of medium (with DMSO, 0.1% final concentration) containing each of the compounds given in the Examples. After additional incubation for 24 hours under the same conditions, the cells were washed once with D-PBS(—) (Wako) and 25 μL/well of the lysis solution (with gDNA Remove) contained in the SuperPrep (registered trademark) Cell Lysis & RT Kit for qPCR (Toyobo life science) was added according to the manufacturer's instructions so that the cells were lysed and the genomic DNA was degraded. Furthermore, 5 μL of the STOP solution (with RNase Inhibitor) contained in the kit was added to provide RNA-containing solutions. Six microliters of the RNA-containing solutions were each mixed with 14 μL of a reverse transcription solution containing transcriptase together with dNTP, random primers and an oligodT primer. Reverse transcription was performed at 37° C. (15 min), 50° C. (5 min), and 98° C. (5 min), to give total cDNAs. The total cDNAs were diluted 30-fold with Ultra-pure water (Invitrogen) to measure the expression levels of FL-SMN, delta7, and GAPDH. For quantitative PCR (qPCR), a PCR solution was prepared according to the instructions of the manufacturer of the THUNDERBIRD (registered trademark) Probe qPCR Mix (Toyobo life science). Five microliters of the diluted total cDNA solutions and oligo DNA standard solutions, each containing either 001-Standard FL-SMN (SEQ ID NO. 1) or 002-Standard delta7 (SEQ ID NO. 2), were each mixed with 10 μL of each of the PCR solutions containing a qPCR probe, primers, and PCR enzyme. […] The oligoDNA standard solutions were prepared as those containing either of 5×10^8, 5×10^7, 5×10^6, 5×10^5, 5×10^4, 5×10^3, 5×10^2, 5×10, 5, or 0 copies. For the oligo DNA standards, primers, and probes, oligonucleotides synthesized by Integrated DNA Technologies, Inc. (IDT) were used. […] FIGS. 3B and 3D show their detection mechanisms. The final concentrations of the primers and probes added were 0.4 μM and 0.15 μM, respectively. The qPCR was performed using the following conditions on a ViiA7 instrument (Applied Biosystems): first stage: 95° C. (1 min)→second stage: 95° C. (15 sec)→third stage: 60° C. (1 min)→40 repeated cycles of the second and third stages. The GAPDH mRNA was used as the internal control, and the commercially available 20×gene expression PCR assay (Life Technologies, 4326317E, Hs99999905_ml) and Standard GAPDH (SEQ ID NO. 7) (see FIG. 1) was used to determine the number of copies of this gene. The measurement values obtained for the samples to be measured were standardized against the respective value obtained for GAPDH.
Using the above-mentioned assays, the activities of the compounds of the Examples were evaluated. Specifically, the percentages of the FL-SMN and delta7 values obtained using DMSO without the compounds and standardized against GAPDH were set as 100% and those of the FL-SMN and delta7 values obtained at the time of administration of the compounds and standardized against GAPDH were calculated. […]
Background: Quantitative PCR measures a nucleic acid by following its amplification.
With `Cc1nc2ccc(-c3ccc4nc(C5CCN(C)CC5)[nH]c(=O)c4c3)cc2o1` [Example 13, 6-(2-Methyl-1,3-benzoxazol-6-yl)-2-(1-methylpiperidin-4-yl)quinazolin-4(3H)-one], the “Percentage of increase (FL-SMN mRNA standardized against GAPDH, DMSO control set as 100%)” value is recorded as “**** (equal to or higher than 180%)”.
In the case of `CCc1cn2cc(-c3ccc4nc(C5CCN(C)CC5)[nH]c(=O)c4c3)ccc2n1` [Example 68, 6-(2-ethylimidazo[1,2-a]pyridin-6-yl)-2-(1-methylpiperidin-4-yl)quinazolin-4(3H)-one] it was “* (equal to or higher than 100% but lower than 120%)”; in that of `COc1cc(-c2ccc3nc(C4CCN(C)CC4)[nH]c(=O)c3c2)cn2cc(C)nc12` [Example 22, 6-(8-methoxy-2-methylimidazo[1,2-a]pyridine-6-yl)-2-(1-methylpiperidine-4-yl) kinazoline-4 (3H)-one], “**** (equal to or higher than 180%)”; in that of `COc1ccc(-c2cc(F)c3nc(C4CCN(C)CC4)[nH]c(=O)c3c2)cc1F` [Example 87, 8-fluoro-6-(3-fluoro-4-methoxyphenyl)-2-(1-methylpiperidin-4-yl)quinazolin-4(3H7)-one], “**** (equal to or higher than 180%)”.
Regarding `Cc1cn2nc(-c3nc4ccc(C5CCN(C)CC5)c(F)c4c(=O)[nH]3)cc2c(C)n1` [Example 4, 2-(4,6-Dimethylpyrazolo[1,5-α]pyrazin-2-yl)-5-fluoro-6-(1-methylpiperidin-4-yl)quinazolin-4(3H)-one], the “Percentage of increase (FL-SMN mRNA standardized against GAPDH, DMSO control set as 100%)” value is “**** (equal to or higher than 180%)”.
With `Cc1nc2c(F)cc(-c3cc(F)c4nc(C5CCN(C6CC6)CC5)[nH]c(=O)c4c3)cc2o1` [Example 28, 2-(1-cyclopropylpiperidin-4-yl)-8-fluoro-6-(4-fluoro-2-methyl-1,3-benzoxazol-6-yl)quinazolin-4(3H)-one], the “Percentage of increase (FL-SMN mRNA standardized against GAPDH, DMSO control set as 100%)” value is listed as “**** (equal to or higher than 180%)”.
Consider `Cc1cn2nc(-c3nc4ccc(N5CCNCC5)cc4c(=O)[nH]3)cc2c(C)n1` [Example 16, 2-(4,6-Dimethylpyrazolo[1,5-α]pyrazin-2-yl)-6-(piperazin-1-yl)quinazolin-4(3H)-one dihydrochloride], for which the “Percentage of increase (FL-SMN mRNA standardized against GAPDH, DMSO control set as 100%)” value is recorded as “**** (equal to or higher than 180%)”.
Turning to `Cc1cn2cc(-c3cc(F)c4nc(C5(F)CCN(C(C)C)CC5)[nH]c(=O)c4c3)cc(F)c2n1` [Example 99, 8-fluoro-2-(4-fluoro-1-isopropylpiperidin-4-yl)-6-(8-fluoro-2-methylimidazo[1,2-a]pyridin-6-yl)quinazolin-4(3H)-one], the “Percentage of increase (FL-SMN mRNA standardized against GAPDH, DMSO control set as 100%)” value is “**** (equal to or higher than 180%)”.
Regarding `COc1ccc(-c2cc(F)c3nc(C4CCN(C5CC5)CC4)[nH]c(=O)c3c2)cc1F` [Example 35, 2-(1-cyclopropylpiperidin-4-yl)-8-fluoro-6-(3-fluoro-4-methoxyphenyl) quinazolin-4(3H)-one], the “Percentage of increase (FL-SMN mRNA standardized against GAPDH, DMSO control set as 100%)” value is reported as “**** (equal to or higher than 180%)”.
As to `Cc1cn2nc(-c3nc4ccc(N5CCOCC5)cc4c(=O)[nH]3)cc2c(C)n1` [Example 79, 2-(4,6-dimethylpyrazolo[1,5-a]pyrazin-2-yl)-6-(morpholin-4-yl)quinazolin-4(3H)-one], the “Percentage of increase (FL-SMN mRNA standardized against GAPDH, DMSO control set as 100%)” value is “* (equal to or higher than 100% but lower than 120%)”.
As to `CCN1CCC(F)(c2nc3c(F)cc(-c4cc(F)c5nc(C)cn5c4)cc3c(=O)[nH]2)CC1` [Example 98, 2-(1-ethyl-4-fluoropiperidin-4-yl)-8-fluoro-6-(8-fluoro-2-methylimidazo[1,2-a]pyridin-6-yl)quinazolin-4(3H)-one], the “Percentage of increase (FL-SMN mRNA standardized against GAPDH, DMSO control set as 100%)” value is on record as “**** (equal to or higher than 180%)”.

Source of the values: patent US12012410B2, “Substituted pyrazolo[1,5-a]pyrazines for spinal muscular atrophy” (REBORNA BIOSCIENCES, INC., priority 2018, dated 2024).
